Test results: patent US20060293335A1 (priority 2002, published 2006)
Read-outs that look alike come from different tables or passages of the source.

Experiments:
[1] = for urinary riboflavin excretion: i.m., riboflavin-free diet
[2] = system: oral ulcer after chemotherapy
Procedure: 35 cases of acute lymphocytic leukemia and 13 cases of acute nonlymphocytic leukemia (6 M2 cases, 3 M3 cases, 2 M4 cases and 2 M5 cases) were also included.
Treatment: Regular chemotherapies, such as CODPL, HDMTX, DA were adopted. Other chemotherapies regimens were not listed. Tetrahydrofolate folic calcium was used to against the toxicity of HDMTX (hige-dose MTX). Hydration and alkalinizing of urine were performed in all patients by Dobll's solution. 5% NaHCO3 and 3% peroxide hydrogen were used to rinse the mouth alternatively.

[3] = system: blood glutathione reductase activity coefficient (BGRAC)
[4] = not given; remark: listed apart in the source
[5] = system: oral ulcer after bone marrow transplantation; details: 28 leukemia cases with bone marrow transplantation; 150 mg LRM injected
Procedure: 28 cases of leukemia with bone marrow transplantation were recruited. 150 mg LRM was injected for prevention of catarrh.

Male wistar Rats = details: medium and high LRM injected
Procedure: 60 Wistar rats weighing 64.5±4.6 g were used in the experiment. […] The rats were weighed every 6 days. […] The blood glutathione reductase activity coefficient (BGRAC) was measured.

[6] = day 15, medium dosage (5.01 g for 90 days per rat as printed; riboflavin group same dosage)
[7] = day 30, medium dosage (riboflavin group same dosage)
[8] = day 60, medium dosage (riboflavin group same dosage)
[9] = day 90, medium dosage (riboflavin group same dosage)

In the case of `CCCCCCCCCCCC(=O)OC[C@@H](O)[C@@H](O)[C@@H](O)Cn1c2nc(=O)[nH]c(=O)c-2nc2cc(C)c(C)cc21` [LRM, 5′-lauric acid monoester of riboflavin], the “riboflavin discharged in urine compared with riboflavin deficiency group” value ([1]; after 15 days, riboflavin group, low and medium dosage LRM groups) is reported as “higher than that in the riboflavin deficiency group”, the urinary riboflavin excretion ([1]; day 15, high dosage (double of medium)) is reported as 217.9 ± 60.2 μg per rat per day and the urinary riboflavin excretion ([1]; day 15, low dosage (half of medium)) is reported as 5.6 ± 1.3 μg per rat per day. The urinary riboflavin excretion [1, 6] was 34.8 ± 12.2 μg per rat per day, the urinary riboflavin excretion ([1]; day 30, high dosage (double of medium)) was 9.8 ± 3.5 μg per rat per day and the urinary riboflavin excretion ([1]; day 30, low dosage (half of medium)) was 4.1 ± 0.8 μg per rat per day. The urinary riboflavin excretion [1, 7] was 5.0 ± 1.2 μg per rat per day, the urinary riboflavin excretion ([1]; day 60, high dosage (double of medium)) was 9.9 ± 2.0 μg per rat per day and the urinary riboflavin excretion ([1]; day 60, low dosage (half of medium)) was 5.4 ± 1.3 μg per rat per day. It also gave a urinary riboflavin excretion [1, 8] of 7.8 ± 1.3 μg per rat per day, a urinary riboflavin excretion ([1]; day 90, high dosage (double of medium)) of 5.9 ± 1.2 μg per rat per day and a urinary riboflavin excretion ([1]; day 90, low dosage (half of medium)) of 5.1 ± 0.9 μg per rat per day. For the same compound, the urinary riboflavin excretion [1, 9] was 4.6 ± 1.1 μg per rat per day, the “urinary riboflavin excretion, course over time” value ([1]; high dosage LRM group) was “markedly increased at the 15th day and then rapidly decreased after the 30 days” and the “Occurrence (%) of oral ulcer” value ([2]; ALL, LRM treated before chemotherapy (150 mg i.m.)) was 0%. The “Ulcer observed (times)” value ([2]; ALL, LRM treated before chemotherapy (150 mg i.m.), 18 chemotherapies) was 0 times, the “Occurrence (%) of oral ulcer” value ([2]; ALL, LRM treated in recent 3 months) was 7.1% and the “Ulcer observed (times)” value ([2]; ALL, LRM treated in recent 3 months, 42 chemotherapies) was 3 times. The “Occurrence (%) of oral ulcer” value ([2]; ANLL, LRM treated before chemotherapy (150 mg i.m.)) was 0%, the “Ulcer observed (times)” value ([2]; ANLL, LRM treated before chemotherapy (150 mg i.m.), 8 chemotherapies) was 0 times and the “Occurrence (%) of oral ulcer” value ([2]; ANLL, LRM treated in 3 months) was 12.5%. The “Ulcer observed (times)” value ([2]; ANLL, LRM treated in 3 months, 8 chemotherapies) was 1 times, the “prevention of oral ulcer after chemotherapy” value ([2]; LRM treatment prior to chemotherapy) was “could effectively prevent the occurrence of oral ulcer after chemotherapy” and the “incidence of oral ulcer” value ([2]; within 3 months after chemotherapy) was “could effectively decrease the incidence of oral ulcer”. The “riboflavin content in plasma, course” value (high dosage LRM group (FIG. 4)) was “first elevated and then declined”, the “content of riboflavin in plasma, course” value (riboflavin group, low and medium dosage LRM groups (FIG. 4)) was “decline” and the “BGRAC, course and order of groups” value ([3]; low, medium and high dosage LRM groups (FIG. 3)) was “elevated, in the order as follows the low dosage LRM group>the medium dosage LRM group>the high dosage LRM group”. For the same compound, the food-intake ([4]; low dosage LRM group, after 30 days) was “decreased”, the weight gain ([4]; medium and high dosage LRM groups) was “gained weight significantly” and the “gain of body weight” value ([4]; medium dosage LRM group, at the end of the experiment (FIG. 2)) was “lower than that of the high dosage LRM group”. The food intake ([4]; medium dosage LRM group, in the last few days) was “decreased and was lower than that of the high dosage LRM group”, the food intake ([4]; the three LRM groups (FIG. 1)) was “higher than the riboflavin group and the riboflavin deficiency group” and the “cases that suffered oral ulcer” value [5] was 4 cases. The “share of cases that suffered oral ulcer” value [5] was 14.3% and the “release of free riboflavin in the body” value (Male wistar Rats) was “could slowly release free riboflavin and meet the demand of the body”.
In the case of `Cc1cc2nc3c(=O)[nH]c(=O)nc-3n(C[C@H](O)[C@H](O)[C@H](O)CO)c2cc1C` [Riboflavin, riboflavin, reference compound], the urinary riboflavin excretion [1, 6] is reported as 4.0 ± 1.4 μg per rat per day, the urinary riboflavin excretion [1, 7] is reported as 7.8 ± 1.6 μg per rat per day and the urinary riboflavin excretion [1, 8] is reported as 4.5 ± 0.9 μg per rat per day. For the same compound, the urinary riboflavin excretion [1, 9] was 4.2 ± 0.9 μg per rat per day, the “BGRAC, course and comparison” value ([3]; riboflavin group, during the first 30 days (FIG. 3)) was “gradually increased and significantly higher than that in the LRM groups and lower than that in the riboflavin deficiency group” and the food intake ([4]; riboflavin group (FIG. 1)) was “did not drop until 25 days later and still more than that in the riboflavin deficiency group”.
